In publication PMC6934184, “Selective DNA-PKcs inhibition extends the therapeutic index of localized radiotherapy and chemotherapy” (The Journal of Clinical Investigation, 2019):

Target: T1, PRKX (Homo sapiens, UniProt P51817)
T1 construct: purchased Thermo Fisher Scientific (Life Technologies) SelectScreen
Assay: SelectScreen Z'LYTE
Format: biochemical
Method in brief: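 Percent values come from Thermo SelectScreen profiling of NU5455, combining activity and binding assays. CSF1R was run in Z'LYTE format at Km app ATP, and CAMK1 in Adapta format with ATP listed at 10.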

T1 sequence (P51817 whole entry): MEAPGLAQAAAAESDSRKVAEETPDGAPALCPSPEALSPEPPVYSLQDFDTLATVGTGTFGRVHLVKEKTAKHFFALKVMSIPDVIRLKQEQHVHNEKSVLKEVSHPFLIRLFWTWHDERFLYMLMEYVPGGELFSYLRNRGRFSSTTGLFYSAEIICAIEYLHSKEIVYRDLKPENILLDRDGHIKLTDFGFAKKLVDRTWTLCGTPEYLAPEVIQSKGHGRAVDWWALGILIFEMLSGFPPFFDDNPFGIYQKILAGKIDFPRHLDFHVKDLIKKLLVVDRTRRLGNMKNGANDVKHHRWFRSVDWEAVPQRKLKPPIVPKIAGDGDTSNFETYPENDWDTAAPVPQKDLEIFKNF

CN(C(=O)CN1CCOCC1)c1ccc2sc3c(-c4cccc5c(=O)cc(N6CC7CCC(C6)O7)oc45)cccc3c2c1 [NU5455]
inhibition at 1 µM: 12.5%
